Laboratory results from US8906921B2, “4-alkoxypyridazine derivatives as fast dissociating dopamine 2 receptor antagonists” (Janssen Pharmaceutica NV, priority 2007, dated 2014).
Counter-ions that a name gives are not always drawn.

COc1cc(Cl)nnc1NC1CCN(Cc2cc(F)cc(C(F)(F)F)c2)CC1
melting point: 121.5 °C

COc1cc(Cl)nnc1NC1CCN(Cc2ccc(F)c(F)c2)CC1
melting point: 130.5 °C

COc1cc(Cl)nnc1NC1CCN(Cc2cc(F)c(F)c(F)c2)CC1
melting point: 150.7 °C

COc1cc(C(F)(F)F)nnc1NC1CCN(Cc2cccc(C(F)(F)F)c2)CC1 (as salt: hydrochloride)
melting point: 211.3 °C
